From patent publication US20210403485A1, “PYRAZOLOPYRIMIDINE DERIVATIVE AS SELECTIVE TRK INHIBITOR” (SHANDONG LUYE PHARMACEUTICAL CO., LTD., priority 2018, published 2021)

How the values were obtained:
[1] = target: T1, Ba/F3 LMNA-NTRK1-F589L (Homo sapiens, UniProt P04629, F589L, cells depend on it); experiment: Inhibitory activity against cell proliferation (CellTiter-Glo, 72 hours); format: cell-based; settings: read-out: Half maximal inhibitory concentration IC50 of cells, Ba/F3 LMNA-NTRK1-F589L
T1 construct: fused on or other part: N-terminal part of LMNA as fusion partner (part of the key); P02545 (Prelamin-A/C)
T1 sequence (P04629 whole entry F589L, the tested form may be a part): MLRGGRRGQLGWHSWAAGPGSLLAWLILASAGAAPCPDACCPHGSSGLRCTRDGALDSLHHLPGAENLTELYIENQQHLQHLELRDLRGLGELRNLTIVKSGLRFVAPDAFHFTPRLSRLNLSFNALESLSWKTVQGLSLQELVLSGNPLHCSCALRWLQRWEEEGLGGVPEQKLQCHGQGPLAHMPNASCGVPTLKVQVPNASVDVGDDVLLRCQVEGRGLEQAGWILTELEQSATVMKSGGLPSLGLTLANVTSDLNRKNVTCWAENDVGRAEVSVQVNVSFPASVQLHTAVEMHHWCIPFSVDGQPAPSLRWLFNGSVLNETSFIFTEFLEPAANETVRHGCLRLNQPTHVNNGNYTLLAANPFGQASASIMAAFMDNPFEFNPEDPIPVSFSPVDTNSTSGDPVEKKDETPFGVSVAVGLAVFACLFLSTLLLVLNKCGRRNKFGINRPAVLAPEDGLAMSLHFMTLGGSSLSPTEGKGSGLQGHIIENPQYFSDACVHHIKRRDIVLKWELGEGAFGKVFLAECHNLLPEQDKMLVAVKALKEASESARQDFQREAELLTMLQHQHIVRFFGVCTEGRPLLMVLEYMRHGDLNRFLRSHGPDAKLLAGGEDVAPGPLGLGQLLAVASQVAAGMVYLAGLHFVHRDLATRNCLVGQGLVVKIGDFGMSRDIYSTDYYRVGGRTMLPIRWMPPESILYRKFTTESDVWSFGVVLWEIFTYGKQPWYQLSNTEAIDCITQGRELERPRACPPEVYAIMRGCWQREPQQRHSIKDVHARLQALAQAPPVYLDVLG
Procedure, shortened: (§1)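 Log-phase Ba/F3 cells (trypan blue viability above 90%) were treated in triplicate with a 9-point, 3-fold compound series. ATP-dependent luminescence was read after CellTiter-Glo addition, and IC50 values came from nonlinear sigmoidal dose-response fits.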

[2] = target: T2, Ba/F3 LMNA-NTRK1-WT (Homo sapiens, UniProt P04629); experiment: as above; format: cell-based; settings: read-out: Half maximal inhibitory concentration IC50 of cells, Ba/F3 LMNA-NTRK1-WT
T2 construct: fused on or other part: N-terminal part of LMNA as fusion partner (part of the key); P02545 (Prelamin-A/C)
T2 sequence (P04629 whole entry, change not shown, the tested form may be a part): as the sequence (P04629 whole entry F589L, the tested form may be a part) above, with L589F counted along it
Procedure, shortened: as §1

[3] = target: T3, BaF3 ETV6-NTRK3-WT (Homo sapiens, UniProt Q16288); experiment: as above; format: cell-based; settings: read-out: Half maximal inhibitory concentration IC50 of cells, BaF3 ETV6-NTRK3-WT
T3 construct: fused on or other part: N-terminal part of ETV6 (TEL) as fusion partner (part of the key); P41212 (Transcription factor ETV6)
T3 sequence (Q16288 whole entry, change not shown, the tested form may be a part): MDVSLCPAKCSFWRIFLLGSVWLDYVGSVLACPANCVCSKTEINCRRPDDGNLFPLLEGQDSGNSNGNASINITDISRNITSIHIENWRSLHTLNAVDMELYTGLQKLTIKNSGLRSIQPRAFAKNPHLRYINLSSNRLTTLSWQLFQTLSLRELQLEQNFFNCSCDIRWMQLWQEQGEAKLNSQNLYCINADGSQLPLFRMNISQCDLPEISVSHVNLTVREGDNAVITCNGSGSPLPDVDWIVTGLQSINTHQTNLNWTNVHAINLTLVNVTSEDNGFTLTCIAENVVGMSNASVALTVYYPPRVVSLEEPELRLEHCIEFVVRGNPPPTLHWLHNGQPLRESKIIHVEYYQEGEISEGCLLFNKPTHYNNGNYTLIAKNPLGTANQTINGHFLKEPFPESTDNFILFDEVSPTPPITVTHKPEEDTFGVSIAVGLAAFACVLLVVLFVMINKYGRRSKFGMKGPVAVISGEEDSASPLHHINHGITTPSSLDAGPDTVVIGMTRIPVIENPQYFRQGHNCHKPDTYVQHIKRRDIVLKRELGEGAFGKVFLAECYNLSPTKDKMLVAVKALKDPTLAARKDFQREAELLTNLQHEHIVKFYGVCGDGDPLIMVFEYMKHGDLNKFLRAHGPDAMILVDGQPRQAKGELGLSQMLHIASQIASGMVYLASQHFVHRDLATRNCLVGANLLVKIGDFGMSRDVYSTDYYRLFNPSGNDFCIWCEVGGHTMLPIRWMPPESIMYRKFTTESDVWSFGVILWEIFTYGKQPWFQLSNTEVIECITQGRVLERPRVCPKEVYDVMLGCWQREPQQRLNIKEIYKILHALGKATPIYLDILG
Procedure, shortened: as §1

[4] = target: T4, BaF3 LMNA-NTRK1-G595R (Homo sapiens, UniProt P04629, G595R, cells depend on it); experiment: as above; format: cell-based; settings: read-out: Half maximal inhibitory concentration IC50 of cells, BaF3 LMNA-NTRK1-G595R
T4 construct: fused on or other part: N-terminal part of LMNA as fusion partner (part of the key); P02545 (Prelamin-A/C)
T4 sequence (P04629 whole entry G595R, the tested form may be a part): as the sequence (P04629 whole entry F589L, the tested form may be a part) above, with L589F, G595R counted along it
Procedure, shortened: as §1

[5] = target: T5, BaF3 LMNA-NTRK1-G667A (Homo sapiens, UniProt P04629, G667A, cells depend on it); experiment: as above; format: cell-based; settings: read-out: Half maximal inhibitory concentration IC50 of cells, BaF3 LMNA-NTRK1-G667A
T5 construct: fused on or other part: N-terminal part of LMNA as fusion partner (part of the key); P02545 (Prelamin-A/C)
T5 sequence (P04629 whole entry G667A, the tested form may be a part): as the sequence (P04629 whole entry F589L, the tested form may be a part) above, with L589F, G667A counted along it
Procedure, shortened: as §1

[6] = target: T6, BaF3 ETV6-NTRK3-G623R (Homo sapiens, UniProt Q16288, G623R, cells depend on it); experiment: as above; format: cell-based; settings: read-out: Half maximal inhibitory concentration IC50 of cells, BaF3 ETV6-NTRK3-G623R
T6 construct: fused on or other part: N-terminal part of ETV6 (TEL) as fusion partner (part of the key); P41212 (Transcription factor ETV6)
T6 sequence (Q16288 whole entry G623R, the tested form may be a part): as the sequence (Q16288 whole entry, change not shown, the tested form may be a part) above, with G623R counted along it
Description: Adenosine Triphosphate (ATP) is an energy carrier commonly used in various life activities in nature, and is the minimum unit for energy storage and transfer. The CellTiter-Glo™ cell viability assay kit uses luciferase as an assay agent, which requires the involvement of ATP in luminescence. The CellTiter-Glo™ reagent is added into cell culture medium to measure the luminescence value. The luminescence signal is directly proportional to the amount of ATP in the system, and the ATP is positively correlated with the number of viable cells. Therefore, the proliferation of cells can be detected by detecting the ATP content using the CellTiter-Glo kit. In this test, the cell lines used are Ba/F3 LMNA-NTRK1-WT, Ba/F3 LMNA-NTRK1-F589L, BaF3 LMNA-NTRK1-G595R, BaF3 LMNA-NTRK1-G667A, BaF3 ETV6-NTRK3-WT, BaF3 ETV6-NTRK3-G623R, and Ba/F3 SLC34A2-ROS1-WT stable cell strains, 5000 cells/well.
a) Cells in the logarithmic growth phase were collected and counted using a […]. The cell viability was detected by the trypan blue exclusion method, and the cell viability was kept over 90%.
b) The cell concentration was adjusted; 90 μL of the cell suspension was added to a 96-well plate.
c) Cells in the 96-well plate were incubated overnight at 37° C. with 5% CO2 and 95% humidity.
a) A 10-fold compound solution was prepared, with the highest concentration being 10 μM (a total of 9 concentrations, 3-fold dilution). 10 μL of compound solution was added to each well of a 96-well plate inoculated with cells, and three duplicate wells were set for each compound concentration.
b) The cells in the 96-well plate added with compound were incubated for 72 hours at 37° C. with 5% CO2 and 95% humidity, followed by the CTG (CellTiter-Glo) analysis.
a) The CTG reagent was thawed and the cell plate was equilibrated to room temperature for 30 minutes.
b) An equal volume of CTG solution was added to each well.
c) The plate was shaken on an orbital shaker for 5 minutes to lyse the cells.
d) The cell plate was placed at room temperature for 20 minutes to stabilize the luminescence signal.
e) The luminescence value was read.
The data were analyzed using GraphPad Prism 5.0 software, fitted with nonlinear S-curve regression to give dose-response curves, and IC50 values were calculated therefrom.

[7] = test system: Ba/F3 ETV6-NTRK3-G623R cells; experiment: Efficacy test in animals: subcutaneous xenograft, intragastric administration; format: in vivo, nude mice; settings: for TGI (tumor growth inhibition rate): day of dissection; for Tumor inhibition rate (by tumor weight) / Tumor weight: end of the test
Description: Cells in the logarithmic growth phase were collected and resuspended in serum-free medium to a cell concentration of 2-4×10^7 cells/mL. An equal volume of matrigel was added to the cell suspension to achieve a final cell concentration of 1-2×10^7 cells/mL. 0.2 mL of tumor cell suspension was subcutaneously inoculated at the scapula of each nude mouse with the inoculation amount of 2-4×10^6 cells/mouse to prepare the animal models.

## C[C@@H]1CCc2ncc(F)cc2[C@H]2CCCN2c2ccn3ncc(c3n2)C(=O)N1 [LOXO-195, reference compound]
[1]
  GI50: 44 nM
[2]
  GI50: 4.9 nM
[3]
  GI50: 2.6 nM
[4]
  GI50: 6.8 nM
[5]
  GI50: 24.4 nM
[6]
  GI50: 2.7 nM
[7]; Day 0, 100 mg/kg bid
  Tumor volume: 200.27 ± 30.38 mm^3
[7]; Day 3, 100 mg/kg bid
  Tumor volume: 282.91 ± 82.61 mm^3
[7]; Day 5, 100 mg/kg bid
  Tumor volume: 306.00 ± 115.66 mm^3
[7]; Day 7, 100 mg/kg bid
  Tumor volume: 364.50 ± 212.47 mm^3
[7]; Day 9, 100 mg/kg bid
  Tumor volume: 334.53 ± 184.22 mm^3
[7]; Day 11, 100 mg/kg bid
  Tumor volume: 345.18 ± 306.01 mm^3
[7]; 100 mg/kg bid
  TGI (tumor growth inhibition rate): 90.07%
  Tumor inhibition rate (by tumor weight): 91.50%
  Tumor weight: 0.15 ± 0.14 g

## O=C(Nc1cnn2ccc(N3CCC[C@@H]3c3cc(F)ccc3F)nc12)N1CC[C@H](O)C1 [LOXO-101, larotrectinib, reference compound]
[6]
  GI50: 394 nM
[7]; Day 0, 60 mg/kg qd
  Tumor volume: 200.39 ± 31.65 mm^3
[7]; Day 3, 60 mg/kg qd
  Tumor volume: 552.34 ± 219.25 mm^3
[7]; Day 5, 60 mg/kg qd
  Tumor volume: 1025.59 ± 347.93 mm^3
[7]; Day 7, 60 mg/kg qd
  Tumor volume: 1349.08 ± 541.06 mm^3
[7]; Day 9, 60 mg/kg qd
  Tumor volume: 1822.21 ± 755.31 mm^3
[7]; Day 11, 60 mg/kg qd
  Tumor volume: 2375.84 ± 852.18 mm^3
[7]; 60 mg/kg qd
  TGI (tumor growth inhibition rate): 31.65%
  Tumor inhibition rate (by tumor weight): 25.27%
  Tumor weight: 1.28 ± 0.62 g
